≈ marks a conversion by molar mass, not a printed value. Like-named read-outs stand apart in the source and are kept apart here.

The record followed here is patent publication US8859620B2, “Phthalanilate compounds and methods of use” (University of Notre Dame du Lac, priority 2009, dated 2014).

The target in assay [1] is TEM-1 (class A β-lactamase) (Escherichia coli, UniProt P62593). Put plainly: β-Lactamase assay (nitrocefin colour change), TEM-1. It is filed as biochemical. The following applies: Table 10; class symbols x/xx/xxx, key not given. As for the experimental part: (§1) β-Lactamase Assays (TEM-1, P99, and OXA-10): The activity of the compounds of the invention (inhibitors) toward β-lactamases was evaluated using 96 well plates. The reaction mixture included 10 mM sodium phosphate, pH 7.0, 150 mM sodium chloride, 0.01% Triton X-100, 100 μM nitrocefin, 10 nM of β-lactamases (class A: TEM-1; class C: P99, or class D: OXA-10), and variable concentrations of the inhibitors in a total volume of 100 μL. β-Lactamases were pre-incubated with the compounds at room temperature for 5 minutes, and the assay was initiated by the addition of nitrocefin. The inhibition of the enzyme activity by the compounds was determined by monitoring color change (from yellow to red) of nitrocefin after 20 minutes. Stock solutions of the compounds were prepared in dimethyl sulfoxide (DMSO). No more than 5% DMSO was present in assays, unless noted otherwise. B1aR Assay: The surface domain of B1aR (1 μM) was added to each inhibitor (at various concentrations) in 100 mM sodium phosphate, 50 mM sodium bicarbonate, at pH 7.0. The reaction mixtures were incubated at room temperature for 20 minutes. BOCILLIN FL, a fluorogenic ligand, was added to a concentration of 20 μM in a final volume of 20 μL. The mixtures were incubated at 37° C. for 5 minutes, at which point the reactions were quenched by the addition of 15 μL of the SDS sample buffer (125 mM Tris, 4% SDS, 20% glycerol, 2% 2-mercaptoethanol, pH 6.8), and were boiled for 4 minutes. The samples were loaded onto 15% SDS-PAGE, the gel was developed and scanned using a Storm 840® Fluorimager. The fluorescent bands of BOCILLIN FL-labeled B1aR^S were analyzed by Image Quant 5.2 software. PBP2 Assay: The PBP2 assay was performed according to the methods of Villegas-Esterada et al. (J. Am. Chem. Soc. 2008, 130, 9212-9213).
Chain of TEM-1 (class A β-lactamase) (P62593 24-286 limits assumed): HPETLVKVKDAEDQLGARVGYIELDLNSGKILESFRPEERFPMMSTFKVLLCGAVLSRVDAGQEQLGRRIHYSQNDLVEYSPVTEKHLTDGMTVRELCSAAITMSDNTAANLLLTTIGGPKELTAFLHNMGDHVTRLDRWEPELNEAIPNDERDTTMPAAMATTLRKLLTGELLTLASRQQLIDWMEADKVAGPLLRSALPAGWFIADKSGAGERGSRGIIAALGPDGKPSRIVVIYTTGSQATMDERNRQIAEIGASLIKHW

Assay [2] concerns the target P99 (class C β-lactamase) (Enterobacter cloacae, UniProt P05364). Put plainly: β-Lactamase assay (nitrocefin colour change), P99. The assay is classed as biochemical. The following applies: Table 10; class symbols x/xx/xxx, key not given. As for the experimental part:
as §1

Assay [3] has as its target OXA-10 (class D β-lactamase) (Pseudomonas aeruginosa, UniProt P14489). Put plainly: β-Lactamase assay (nitrocefin colour change), OXA-10. The assay is classed as biochemical. The following applies: Table 10; class symbols x/xx/xxx, key not given. As for the experimental part:
as §1

Assay [4] concerns S. aureus NRS100 (Mec^R). As to the kind of experiment: MIC against S. aureus NRS100 (Table 14). It is filed as cell-based, Staphylococcus aureus. The following applies: compounds dissolved in DMSO or 1% sodium carbonate. As for the experimental part:
The recited compounds were dissolved in DMSO or in 1% sodium carbonate and transferred into micro titer plate to final concentration of 1000 μg/mL.

The subject of assay [5] is S. aureus NRS11 (Mec^S). As to the kind of experiment: MIC against S. aureus NRS11 (Table 13). It is filed as cell-based, Staphylococcus aureus. The note with it: compounds dissolved in DMSO or 1% sodium carbonate. The protocol:
All recited compounds were dissolved in DMSO or in 1% sodium carbonate and transferred to micro titer plates to final concentrations of 1000 μg/mL.

Setting [6] is: Staphylococcus aureus, read-out: MIC.

Chain of P99 (class C β-lactamase) (P05364 21-381): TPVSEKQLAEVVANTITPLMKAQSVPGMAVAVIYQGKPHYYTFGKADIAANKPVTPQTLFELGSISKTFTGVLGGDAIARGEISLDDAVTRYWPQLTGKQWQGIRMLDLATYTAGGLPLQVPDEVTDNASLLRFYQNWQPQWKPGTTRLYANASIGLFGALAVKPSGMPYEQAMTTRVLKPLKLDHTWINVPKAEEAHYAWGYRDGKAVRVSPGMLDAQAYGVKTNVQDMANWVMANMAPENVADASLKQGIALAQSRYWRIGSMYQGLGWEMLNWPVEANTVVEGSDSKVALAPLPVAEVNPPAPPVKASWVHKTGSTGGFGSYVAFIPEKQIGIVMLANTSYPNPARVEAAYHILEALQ
Chain of OXA-10 (class D β-lactamase) (P14489 20-266, species assumed): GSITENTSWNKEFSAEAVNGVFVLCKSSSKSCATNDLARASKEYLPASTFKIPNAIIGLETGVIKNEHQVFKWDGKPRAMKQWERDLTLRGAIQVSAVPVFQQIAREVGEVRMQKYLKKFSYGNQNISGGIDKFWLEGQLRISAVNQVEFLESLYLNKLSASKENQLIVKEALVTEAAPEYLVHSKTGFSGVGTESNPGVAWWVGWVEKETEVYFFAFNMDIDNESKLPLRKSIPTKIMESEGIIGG

`O=C(Nc1ccc(Cl)c(C(F)(F)F)c1)c1cccc([N+](=O)[O-])c1C(=O)O` [Compound 86]: the TEM-1 entry in assay [1] is recorded as “xx”.

In the case of `O=C(O)c1c(Br)c(Br)c(Br)c(Br)c1C(=O)Nc1ccc(Cl)c(C(F)(F)F)c1` [Compound 89], the P99 entry in assay [2] is “xxx”. The TEM-1 entry in assay [1] was “xx”. Besides, the OXA-10 result in assay [3] was “xxx”.

As to `CC(=O)OCC1=C(C(=O)O)N2C(=O)C(N3C(=O)C4=C(SCCS4)C3=O)C2SC1` (centres unmarked) [Compound 118], the P99 result in assay [2] is “xxx”.

On to `NC(=O)C1=C(C(=O)O)SCCS1` [Compound 120], for which the OXA-10 result in assay [3] is listed as “xx”.

In the case of `O=C1C2=C(SCCS2)C(=O)N1C(CO)[C@H](O)c1ccccc1` (some centres unmarked) [Compound 138], the P99 entry in assay [2] was “xxx”. The TEM-1 result in assay [1] is recorded as “xxx”.

Consider `O=C1C2=C(SCCS2)C(=O)N1[C@@H](CO)[C@@H](O)c1ccc([N+](=O)[O-])cc1` [Compound 140], for which the P99 entry in assay [2] is “xx”. The TEM-1 entry in assay [1] is listed as “xx”. Moreover, the OXA-10 entry in assay [3] was “xx”.

Regarding `O=C(O)c1c(Br)c(Br)c(Br)c(Br)c1C(=O)Nc1cccc(C(F)(F)F)c1` [Compound 196], the P99 entry in assay [2] was “xx”. Further, the TEM-1 entry in assay [1] is recorded as “xx”.

As to `N#Cc1cccc(NC(=O)c2c(Br)c(Br)c(Br)c(Br)c2C(=O)[O-])c1.[Na+]` [Compound 201], the P99 entry in assay [2] was “xxx”. The TEM-1 result in assay [1] is listed as “xx”. Also, the OXA-10 entry in assay [3] is recorded as “xx”.

In the case of `O=C(O)c1c(Br)c(Br)c(Br)c(Br)c1C(=O)Nc1ccc(CO)cc1` [Compound 223], the P99 result in assay [2] is reported as “xxx”. The TEM-1 result in assay [1] is “xxx”. Besides, in assay [3], the OXA-10 result is “xxx”.

`O=C1c2c(Br)c(Br)c(Br)c(Br)c2C(=O)N1c1ccc(OCc2ccccc2)c(Cl)c1` [Compound 227]: in assay [1], the TEM-1 result is on record as “xxx”. The OXA-10 entry in assay [3] is “xxx”.

With `CCCCCCCCOc1ccc(N2C(=O)c3c(Br)c(Br)c(Br)c(Br)c3C2=O)cc1` [Compound 230], in assay [4] (setting [6]), the MIC (in general, the lowest concentration found to suppress growth) was > 16 µg/mL.

Take `O=C(O)CC1(CC(=O)Nc2ccc(Cl)c(C(F)(F)F)c2)CCCC1` [Compound 246]: the OXA-10 entry in assay [3] is “xx”.

Turning to `O=C(O)c1c(Cl)c(Cl)c(Cl)c(Cl)c1C(=O)Nc1ccc(CO)cc1` [Compound 254], the OXA-10 entry in assay [3] is listed as “xx”.

As to `O=C(O)c1c(Cl)c(Cl)c(Cl)c(Cl)c1C(=O)Nc1ccc(Cl)c(C(F)(F)F)c1` [Compound 258], the P99 result in assay [2] is reported as “xx”. Besides, the TEM-1 entry in assay [1] is listed as “xxx”. Also, the OXA-10 result in assay [3] is “xx”.

Take `O=C(O)c1c(Cl)c(Cl)c(Cl)c(Cl)c1C(=O)Nc1cccc(Oc2ccccc2)c1` [Compound 268]: the P99 result in assay [2] is reported as “xx”. The TEM-1 entry in assay [1] is “xxx”.

`CCCCCCCCOc1ccc(N(C)C(=O)c2c(Cl)c(Cl)c(Cl)c(Cl)c2C(=O)OC)cc1` [Compound 282]: the OXA-10 entry in assay [3] is on record as “xxx”.

In the case of `CCCCCCCCOc1ccc(N)cc1Cl` [Compound 299], the MIC in assay [4] (setting [6]) is 16 µg/mL (≈ 62.6 µM).

On to `CCCCCCCCOc1ccc(N(C)C(=O)c2c(F)c(F)c(F)c(F)c2C(=O)O)cc1` [Compound 305], for which the P99 result in assay [2] was “xx”. The MIC in assay [4] (setting [6]) came to 16 µg/mL (≈ 35.1 µM). Moreover, in assay [3], the OXA-10 entry is “xx”.

`CCCCCCCCOc1ccc(N(C)C(=O)c2c(Br)c(Br)c(Br)c(Br)c2C(=O)O)cc1` [Compound 307]: the OXA-10 entry in assay [3] was “xxx”.

`CCCCOC(=O)c1ccc(NC(=O)Nc2ccccc2C(=O)O)cc1` [Compound 325]: the MIC in assay [4] and in assay [5] was 256 µg/mL (≈ 718 µM) in each case.

Take `CCCCOC(=O)c1ccc(NC(=O)N(C)c2ccccc2C(=O)O)cc1` [Compound 326]: the MIC in assay [4] and in assay [5] was 2,000 μg/mL throughout.

In the case of `CC(C)C[C@@H](C(=O)O)C(C(=O)O)C(=O)OC(C)(C)C` (some centres unmarked) [Compound 330], the minimum inhibitory concentration (MIC) in assay [4] and in assay [5] was 2,000 μg/mL each time.

Consider `CCCCOC(=O)c1ccc(NC(=O)c2ccccc2C(=O)O)cc1` [Compound 331], for which the minimal inhibitory concentration (MIC) in assay [4] (setting [6]) and in assay [5] (setting [6]) was 2000 µg/mL (≈ 5860 µM) each time.

Turning to `CCCCOC(=O)c1ccc(NC(=O)c2c(F)c(F)c(F)c(F)c2C(=O)O)cc1` [Compound 332], the MIC in assay [4] (setting [6]) and in assay [5] (setting [6]) was 2000 µg/mL (≈ 4840 µM) each time.

Consider `CCCCOC(=O)c1ccc(NC(=O)c2c(Br)c(Br)c(Br)c(Br)c2C(=O)O)cc1` [Compound 334], for which the MIC in assay [4] (setting [6]) and in assay [5] (setting [6]) was 128 µg/mL (≈ 195 µM) in each case.

Turning to `CCCCOC(=O)c1ccc(NC(=O)C2CCC(C)CC2C(=O)O)cc1` (centres unmarked) [Compound 337], the MIC in assay [4] and in assay [5] was 2,000 μg/mL in each case.

Consider `CCCCCCCCOc1ccc(NC(=O)c2ccccc2C(=O)O)cn1` [Compound 343], for which the MIC in assay [4] (setting [6]) and in assay [5] (setting [6]) was 256 µg/mL (≈ 691 µM) in each case.

Consider `CCCCCCCCOc1ccc(NC(=O)c2c(F)c(F)c(F)c(F)c2C(=O)O)cn1` [Compound 344], for which the MIC in assay [4] (setting [6]) and in assay [5] (setting [6]) was 256 µg/mL (≈ 579 µM) each time.

Turning to `O=C(O)c1c(F)c(F)c(F)c(F)c1C(=O)Nc1ccc(OCC(O)COCC2CC2)c(Cl)c1` (centres unmarked) [Compound 354], the MIC in assay [4] and in assay [5] was 500 µg/mL (≈ 1020 µM) each time.

As to `CCCCCCCCOc1ccc(NC(=O)c2ccccc2C(=O)O)c[n+]1[O-]` [Compound 357], the MIC in assay [4] (setting [6]) and in assay [5] (setting [6]) was > 2000 µg/mL in each case.

As for `CCCCCCCCOc1ccc(NC(=O)c2c(Cl)c(Cl)c(Cl)c(Cl)c2C(=O)O)c[n+]1[O-]` [Compound 358], the OXA-10 entry in assay [3] was “xxx”.

As for `CCCCCCCCOc1ccc(NC(=O)c2c(F)c(F)c(F)c(F)c2C(=O)O)c[n+]1[O-]` [Compound 359], the MIC in assay [4] (setting [6]) and in assay [5] (setting [6]) was 1000 µg/mL (≈ 2180 µM) throughout.

Take `CCCCCCCCOc1ccc(NC(=O)c2c(Br)c(Br)c(Br)c(Br)c2C(=O)O)c[n+]1[O-]` [Compound 360]: the TEM-1 result in assay [1] was “xx”. In assay [3], the OXA-10 entry is listed as “xxx”.

For the compound `O=C(O)c1c(F)c(F)c(F)c(F)c1C(=O)Nc1ccc(OCc2ccccc2)nc1` [Compound 363], the MIC in assay [4] and in assay [5] was >2,000 μg/mL throughout.

`CC(Oc1ccc(NC(=O)c2ccccc2C(=O)O)cc1Cl)c1ccccc1` (centres unmarked) [Compound 379]: the MIC in assay [4] and in assay [5] was >2,000 μg/mL throughout.

As for `Cc1ccccc1COc1ccc(NC(=O)c2ccccc2C(=O)O)cc1Cl` [Compound 383], the MIC in assay [4] and in assay [5] was 128 µg/mL (≈ 323 µM) throughout.

Consider `CC(Oc1ccc(NC(=O)c2c(C(=O)O)cccc2[N+](=O)[O-])cc1Cl)c1ccccc1` (centres unmarked) [Compound 391], for which the MIC in assay [4] and in assay [5] was 500 µg/mL (≈ 1130 µM) in each case.

On to `O=C(O)c1cccc([N+](=O)[O-])c1C(=O)Nc1ccc(OCc2ccccc2)nc1` [Compound 392], for which the MIC in assay [4] and in assay [5] was 500 µg/mL (≈ 1270 µM) throughout.

Turning to `COCCOCCOc1ccc(NC(=O)c2c(F)c(F)c(F)c(F)c2C(=O)O)cn1` [Compound 401], the MIC in assay [4] and in assay [5] was >2,000 μg/mL in each case.

In the case of `O=C(O)c1cccc([N+](=O)[O-])c1C(=O)Nc1ccc(OCc2cccc(OC(F)(F)F)c2)c(Cl)c1` [Compound 421], the MIC in assay [4] (setting [6]) was determined as 250 µg/mL (≈ 489 µM).

Take `O=C(O)c1cccnc1C(=O)Nc1ccc(OCc2cccc(OC(F)(F)F)c2)c(Cl)c1` [Compound 423]: the MIC in assay [4] (setting [6]) was determined as 250 µg/mL (≈ 536 µM).

With `O=C(O)c1ccncc1C(=O)Nc1ccc(OCc2cccc(OC(F)(F)F)c2)c(Cl)c1` [Compound 424], the MIC in assay [4] (setting [6]) is > 250 µg/mL.
